Experiments:
Format in all cases: in vivo
[1] = test system: Amaranthus retroflexus (AMARE); assay: Herbicidal post-emergence action, section B (Table B11); details: visual rating about 3 weeks after treatment vs untreated controls
Method: (§1) Seeds of mono- and dicotyledonous weed plants were placed in plastic pots in sandy loam soil (doubly sown with in each case one species of mono- or dicotyledonous weed plants per pot), covered with soil and cultivated in a greenhouse under controlled growth conditions. 2 to 3 weeks after sowing, the test plants were treated at the one-leaf stage. The compounds of the invention, formulated in the form of wettable powders (WP) or as emulsion concentrates (EC), were applied onto the green parts of the plants as aqueous suspension or emulsion with addition of 0.5% additive at a water application rate of 600 liters per hectare (converted). After the test plants had been kept in the greenhouse under optimum growth conditions for about 3 weeks, the activity of the preparations was rated visually in comparison to untreated controls. For example, 100% activity=the plants have died, 0% activity=like control plants.

[2] = test system: Echinochloa crus-galli (ECHCG); assay: Herbicidal pre-emergence action, section A (Table A3); details: application rate 1280 g/ha, visual grading after ca. 3 weeks vs untreated controls; for pest or weed control at 1280 g/ha: Echinochloa crus-galli, pre-emergence, 504 h, read-out: pre-emergence activity against ECHCG in %
Excerpt: (§2) Seeds of mono- and dicotyledonous weed plants were sown in plastic pots (double sowings with one species of mono- and one species of dicotyledonous weed plants per pot), in sandy loam, and covered with soil. The compounds according to the invention, formulated in the form of wettable powders (WP) or as emulsifiable concentrates (EC), were applied to the surface of the covering soil as aqueous suspension or emulsion, with the addition of 0.5% of an additive, at an application rate of 600 l of water per hectare (converted). Following treatment, the pots were placed in a greenhouse and kept under optimum growth conditions for the test plants. The visual grading of the damage to the test plants was carried out after ca. 3 weeks in comparison to untreated controls (herbicidal effect in percent (%): 100% effect=plants have died off, 0% effect=as control plants).

Stellaria media (STEME) = assay: Herbicidal pre-emergence action, section A (Table A9)
Excerpt: as §2

Kochia scoparia (KCHSC) [3] = assay: Herbicidal post-emergence action, section B (Table B4); details: application rate 1280 g/ha; visual rating about 3 weeks after treatment vs untreated controls
Method: as §1

Setaria viridis (SETVI) = assay: Herbicidal pre-emergence action, section A (Table A8); details: for pest or weed control at 1280 g/ha: Setaria viridis, 504 h, read-out: pre-emergence activity against SETVI in %
Excerpt: as §2

[4] = test system: Amaranthus retroflexus (AMARE); assay: Herbicidal pre-emergence action, section A (Table A11)
Excerpt: as §2

Veronica persica (VERPE) [5] = assay: Herbicidal post-emergence action, section B (Table B10); details: application rate 1280 g/ha; visual rating about 3 weeks after treatment vs untreated controls
Method: as §1

Veronica persica (VERPE) [6] = assay: Herbicidal pre-emergence action, section A (Table A10); details: application rate 1280 g/ha
Excerpt: as §2

Kochia scoparia (KCHSC) [7] = assay: Herbicidal pre-emergence action, section A (Table A4); details: application rate 1280 g/ha, visual grading after ca. 3 weeks vs untreated controls
Excerpt: as §2

Poa annua (POAAN) [8] = assay: Herbicidal pre-emergence action, section A (Table A7); details: visual grading after ca. 3 weeks vs untreated controls
Excerpt: as §2

[9] = test system: Digitaria sanguinalis (DIGSA); assay: Herbicidal pre-emergence action, section A (Table A12); details: application rate 1280 g/ha; for pest or weed control at 1280 g/ha: Digitaria sanguinalis, 504 h, read-out: pre-emergence activity against DIGSA in %
Excerpt: as §2

Poa annua (POAAN) [10] = assay: Herbicidal post-emergence action, section B (Table B7); details: application rate 1280 g/ha, visual rating about 3 weeks after treatment vs untreated controls
Method: as §1

Lolium rigidum (LOLRI) = assay: Herbicidal pre-emergence action, section A (Table A5); details: application rate 1280 g/ha, visual grading after ca. 3 weeks vs untreated controls
Excerpt: as §2

[11] = test system: Matricaria inodora (MATIN); assay: Herbicidal pre-emergence action, section A (Table A6); details: Tripleurospermum inodorum, pre-emergence, 504 h; application rate 1280 g/ha; visual grading after ca. 3 weeks vs untreated controls; read-out: pre-emergence activity against MATIN in %
Excerpt: as §2

Cc1cccc(-c2nc3c(cc2Br)SCN3B(N)N)c1C [Example I-105]
post-emergence activity against AMARE in % ([1]; application rate 1280 g/ha): 90%

Cc1cc2c(nc1-c1cccc(Cl)c1F)N(S(C)(=O)=O)CS2 [Example I-111]
pre-emergence activity against ECHCG in % [2]: 100%
pre-emergence activity against STEME in % (Stellaria media (STEME); application rate 1280 g/ha): 90%
post-emergence activity against KCHSC in % (Kochia scoparia (KCHSC) [3]): 90%

O=C(N1CSc2cc(Br)c(-c3cccc(Cl)c3F)nc21)C12CCCC1C(Cl)=NO2 (stereo not shown) [Example I-126]
pre-emergence activity against SETVI in % (Setaria viridis (SETVI); application rate 1280 g/ha): 90%
pre-emergence activity against STEME in % (Stellaria media (STEME); application rate 1280 g/ha): 90%
pre-emergence activity against AMARE in % ([4]; application rate 320 g/ha): 90%
post-emergence activity against VERPE in % (Veronica persica (VERPE) [5]): 90%
post-emergence activity against AMARE in % ([1]; application rate 320 g/ha): 90%

N#CCS(=O)(=O)N1CSc2cc(Br)c(-c3cccc(Cl)c3F)nc21 [Example I-131]
pre-emergence activity against STEME in % (Stellaria media (STEME); application rate 1280 g/ha): 90%
pre-emergence activity against AMARE in % ([4]; application rate 1280 g/ha): 90%
post-emergence activity against VERPE in % (Veronica persica (VERPE) [5]): 90%
post-emergence activity against AMARE in % ([1]; application rate 1280 g/ha): 90%

CCS(=O)(=O)N1CSc2cc(Br)c(-c3cccc(Cl)c3F)nc21 [Example I-132]
pre-emergence activity against VERPE in % (Veronica persica (VERPE) [6]): 90%
post-emergence activity against VERPE in % (Veronica persica (VERPE) [5]): 90%
post-emergence activity against AMARE in % ([1]; application rate 1280 g/ha): 90%

CCS(=O)(=O)N1C[S+]([O-])c2cc(Br)c(-c3ccccc3Cl)nc21 (stereo not shown) [Example I-134]
pest or weed control at 1280 g/ha [2]: 100%
pest or weed control at 1280 g/ha (Kochia scoparia (KCHSC) [7]; Bassia scoparia, pre-emergence, 504 h, read-out: pre-emergence activity against KCHSC in %): 90%
pest or weed control at 1280 g/ha (Poa annua (POAAN) [8]; Poa annua, pre-emergence, 504 h, application rate 1280 g/ha, read-out: pre-emergence activity against POAAN in %): 100%
pest or weed control at 1280 g/ha (Setaria viridis (SETVI); application rate 1280 g/ha): 100%
pest or weed control at 1280 g/ha (Stellaria media (STEME); Stellaria media, 504 h, application rate 1280 g/ha, read-out: pre-emergence activity against STEME in %): 90%
pest or weed control at 1280 g/ha ([4]; Amaranthus retroflexus, 504 h, application rate 1280 g/ha, read-out: pre-emergence activity against AMARE in %): 90%
pest or weed control at 1280 g/ha [9]: 100%
pest or weed control at 1280 g/ha (Poa annua (POAAN) [10]; Poa annua, post-emergence, 504 h, read-out: post-emergence activity against POAAN in %): 90%

Cc1cccc(-c2nc3c(cc2Br)SCN3C(=O)C2(C)CC(Cl)=NO2)c1C (stereo not shown) [Example I-140]
pre-emergence activity against POAAN in % (Poa annua (POAAN) [8]; application rate 1280 g/ha): 100%
pre-emergence activity against STEME in % (Stellaria media (STEME); application rate 1280 g/ha): 90%
pre-emergence activity against AMARE in % ([4]; application rate 1280 g/ha): 90%

COCCOCCOCC(=O)N1CSc2cc(C)c(-c3cccc(F)c3F)nc21 [Example I-149]
pre-emergence activity against ECHCG in % [2]: 100%
pre-emergence activity against KCHSC in % (Kochia scoparia (KCHSC) [7]): 90%
pre-emergence activity against LOLRI in % (Lolium rigidum (LOLRI)): 90%
pre-emergence activity against POAAN in % (Poa annua (POAAN) [8]; application rate 1280 g/ha): 100%
pre-emergence activity against SETVI in % (Setaria viridis (SETVI); application rate 320 g/ha): 100%
pre-emergence activity against STEME in % (Stellaria media (STEME); application rate 1280 g/ha): 90%
pre-emergence activity against VERPE in % (Veronica persica (VERPE) [6]): 90%
pre-emergence activity against AMARE in % ([4]; application rate 320 g/ha): 90%
pre-emergence activity against DIGSA in % [9]: 100%
post-emergence activity against POAAN in % (Poa annua (POAAN) [10]): 90%

CCC(=O)N1C[S+]([O-])c2cc(C)c(-c3cc(F)ccc3F)nc21 (stereo not shown) [Example I-167]
pest or weed control at 1280 g/ha [2]: 100%
pest or weed control at 1280 g/ha (Lolium rigidum (LOLRI); Lolium rigidum, pre-emergence, 504 h, read-out: pre-emergence activity against LOLRI in %): 100%
pest or weed control at 1280 g/ha [11]: 90%
pest or weed control at 320 g/ha (Poa annua (POAAN) [8]; Poa annua, pre-emergence, 504 h, application rate 320 g/ha, read-out: pre-emergence activity against POAAN in %): 100%
pest or weed control at 1280 g/ha (Setaria viridis (SETVI); application rate 1280 g/ha): 90%
pest or weed control at 320 g/ha (Stellaria media (STEME); Stellaria media, 504 h, application rate 320 g/ha, read-out: pre-emergence activity against STEME in %): 90%
pest or weed control at 1280 g/ha (Veronica persica (VERPE) [6]; Veronica persica, 504 h, read-out: pre-emergence activity against VERPE in %): 90%
pest or weed control at 320 g/ha ([4]; Amaranthus retroflexus, 504 h, application rate 320 g/ha, read-out: pre-emergence activity against AMARE in %): 90%
pest or weed control at 1280 g/ha [9]: 100%
